Drawing on patent US11345659B2, “Pipecolic esters for inhibition of the proteasome” (THE BOARD OF REGENTS OF THE UNIVERSY OF TEXAS SYSTEM, priority 2018, dated 2022), this text covers IC50 for 1 molecule.

Structures are written as SMILES.

The assay addresses T1, latent core 20 S proteasome (Homo sapiens, UniProt P25787+P25789).
T1 construct: purified from erythrocytes; purchased Enzo Life Sciences, Inc. (Farmingdale, N.Y.); host or cells: human erythrocytes
The assay is described as follows: ChT-L peptidase activity of latent 20 S core. In kind it is biochemical. Particulars: no tRpt5 activation. Here is the method:
Human housekeeping 20 S and 26 S and complexes purified from erythrocytes were purchased from Enzo Life Sciences, Inc. (Farmingdale, N.Y.). The 1 mg/ml stock 20 S proteasome was diluted to 0.2 mg/ml working solution in 50 mM Tris/HCl, pH 8 containing 20% glycerol (dilution buffer). For the 26 S proteasome stock, the dilution buffer was supplemented with 2 mM ATP, 1 mM MgCl2, and 1 mM DTT (dithiothreitol). The ChT-L peptidase activity was measured as arbitrary intensity units of fluorescence emitted by 7-amino-4-methylcoumarin (AMC) released from the canonical model peptide substrate succinyl-LeuLeuValTyr-methylcoumarin (SucLLVY-MCA; Bachem Bioscience Inc., Philadelphia, Pa.), used at concentration of 100 μM. Free AMC (Sigma-Aldrich, St. Louis, Mo.) was used as the standard. The Rpt5 C-terminal peptide was synthesized (standard solid-phase peptide chemistry) and purified to at least 98% purity by GenScript (Piscataway, N.J.). […]
The reaction was carried out in 96-well plates, in 100 μL of reaction mixture, for 1 hour at 37° C. […] The reaction rates were calculated from a linear segment of kinetic curves constructed from measurements in 1-minutes intervals (Fluoroskan Ascent plate reader; Thermo Fisher Scientific Inc., Waltham, Mass.). Reaction rates were calculated using a linear fit executed by Slope Analyzer and Enzyme Kinetics applications launched within Origin Pro 2017 (OriginLab). […]

As usually defined, the IC50 is the concentration that inhibits the measured activity by half. A low value points to higher potency.

The molecule `COc1cc(CCCOC(=O)[C@@H]2CCCCN2C(=O)OCc2ccccc2)cc(OC)c1OC` [Compound 3, 1-benzyl 2-(3-(3,4,5-trimethoxyphenyl)propyl) (S)-piperidine-1,2-dicarboxylate] gave a concentration for half-maximal inhibition (IC50) of 2800 nM.
